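In this assay, cells in 96-well plates receive the compound at five concentrations for 48 hours. Endpoints are linearly interpolated between the surrounding concentrations. Abbreviation: GI50, concentration required for 50% inhibition of growth. At the TGI there is no net growth.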
Legend:
Assay in all cases: inhibition of tumour cell growth, NCI panel, 48 h
A549 NSCLC = test system: A549 NSCLC
CCRF-CEM leukemia = test system: CCRF-CEM leukemia
HOP-62 NSCLC = test system: HOP-62 NSCLC
NCI-H226 lung = test system: NCI-H226 lung
NCI-H460 lung = test system: NCI-H460 lung
RXF 393 renal = test system: RXF 393 renal
SK-MEL-28 melanoma = test system: SK-MEL-28 melanoma
SW-620 colon = test system: SW-620 colon
UACC-62 melanoma = test system: UACC-62 melanoma
CAKI-1 renal = test system: CAKI-1 renal

Row | SMILES | GI50 (A549 NSCLC) | TGI (A549 NSCLC) | GI50 (CCRF-CEM leukemia) | TGI (CCRF-CEM leukemia) | GI50 (HOP-62 NSCLC) | TGI (HOP-62 NSCLC) | GI50 (NCI-H226 lung) | TGI (NCI-H226 lung) | GI50 (NCI-H460 lung) | TGI (NCI-H460 lung) | GI50 (RXF 393 renal) | TGI (RXF 393 renal) | GI50 (SK-MEL-28 melanoma) | TGI (SK-MEL-28 melanoma) | GI50 (SW-620 colon) | TGI (SW-620 colon) | GI50 (UACC-62 melanoma) | TGI (UACC-62 melanoma) | TGI (CAKI-1 renal) | GI50 (CAKI-1 renal)
1 | CC(C)(C)OC(=O)NCCCCCCCCCn1c2c(c3ccccc3c1=O)C(=O)c1ccccc1-2 | > 100 µM | > 100 µM | > 100 µM | > 100 µM | 24.8 µM | 71.6 µM | 41 µM | > 100 µM | > 100 µM | > 100 µM | 20.5 µM | > 100 µM | > 100 µM | > 100 µM | > 100 µM | > 100 µM | 17.3 µM | 40.7 µM | – | –
2 | O=C(Nc1cc(Cl)c(I)c(Cl)c1)C(F)(F)F | – | – | – | 66.4 µM | – | > 100 µM | – | 66.8 µM | – | > 100 µM | – | 34.5 µM | – | 74 µM | – | > 100 µM | – | 48.9 µM | 56.5 µM | –
3 | COc1ccc(-c2nc(NC(=O)CS(=O)(=O)c3ccc(F)cc3)sc2C)cc1 | – | – | – | – | 22.4 µM | 87.1 µM | 23.8 µM | 87.8 µM | 20.1 µM | 51.5 µM | 15.6 µM | 49.7 µM | 20.1 µM | 62 µM | 13.7 µM | > 100 µM | 13.1 µM | 32.9 µM | > 100 µM | 24.2 µM
4 | Cc1cccc(NC(=O)c2c(N)[n+]([O-])c3ccccc3[n+]2[O-])c1 | – | 34.6 µM | – | > 100 µM | – | 31.3 µM | – | 27 µM | – | 28.1 µM | – | 13.3 µM | – | 20.7 µM | – | 21.4 µM | – | – | 27.4 µM | –
5 | COC(=O)CNC(=O)C(=O)c1c(O)c(O)c(C(C)C)c2cc(C)c(-c3c(C)cc4c(C(C)C)c(O)c(O)c(C(=O)C(=O)NCC(=O)OC)c4c3O)c(O)c12 | 2.13 µM | 8.01 µM | 2.14 µM | > 50 µM | 2.41 µM | 9.61 µM | – | – | 1.52 µM | 4.57 µM | 1.85 µM | 8.39 µM | 2 µM | 8.61 µM | 1.96 µM | 6.94 µM | 2.23 µM | 9.48 µM | 14.3 µM | 3.74 µM
6 | COc1ccc([N+](=O)[O-])c2c(NCCCN(C)C)c(C)c(C)nc12 | – | > 100 µM | – | > 100 µM | – | > 100 µM | – | – | – | > 100 µM | – | – | – | > 100 µM | – | > 100 µM | – | > 100 µM | > 100 µM | –
7 | O=S(=O)(F)Cc1ccccc1 | – | > 100 µM | – | > 100 µM | – | > 100 µM | – | > 100 µM | – | > 100 µM | – | – | – | > 100 µM | – | > 100 µM | – | > 100 µM | > 100 µM | –
8 | N[C@H]1CCC[C@@H](O)C1O (some centres undefined) | – | > 100 µM | – | > 100 µM | – | > 100 µM | – | > 100 µM | – | > 100 µM | – | – | – | > 100 µM | – | > 100 µM | – | > 100 µM | > 100 µM | –
9 | O=C1NC(c2ccccc2)(c2ccccc2)C(=O)N1CCCCCCN1C(=O)NC(c2ccccc2)(c2ccccc2)C1=O | – | > 100 µM | – | > 100 µM | – | > 100 µM | – | > 100 µM | – | > 100 µM | – | – | – | 89.2 µM | – | > 100 µM | – | > 100 µM | > 100 µM | –
10 | Cc1c(C)c2cc3c(=O)c(CCl)coc3c(C)c2oc1=O | – | > 100 µM | – | > 100 µM | – | > 100 µM | – | > 100 µM | – | > 100 µM | – | > 100 µM | – | > 100 µM | – | > 100 µM | – | > 100 µM | – | –
11 | O=C1c2ccccc2C(=O)N1c1ccc(Cc2ccc(N3C(=O)c4ccccc4C3=O)cc2)cc1 | – | > 100 µM | – | – | – | > 100 µM | – | > 100 µM | – | > 100 µM | – | > 100 µM | – | > 100 µM | – | > 100 µM | – | > 100 µM | > 100 µM | –
12 | CNC(=O)[C@H](Cc1c[nH]c2ccccc12)NC(=O)[C@@H](CC(=O)NO)CC(C)C | > 25 µM | > 25 µM | – | – | > 25 µM | > 25 µM | > 25 µM | > 25 µM | > 25 µM | > 25 µM | – | – | > 25 µM | > 25 µM | > 25 µM | > 25 µM | > 25 µM | > 25 µM | > 25 µM | > 25 µM
13 | CCN(Cc1ccc(Cl)c(Cl)c1)c1ccc2nc(N)nc(N)c2c1C | – | – | 0.0252 µM | 6.3 µM | – | – | 0.96 µM | 4.3 µM | < 0.01 µM | 1.47 µM | – | – | 0.157 µM | 1.83 µM | < 0.01 µM | 1.6 µM | – | – | 0.802 µM | < 0.0237 µM
14 | CN(C)CCCNc1ccnc2c([N+](=O)[O-])cccc12 | – | 75.5 µM | – | 96 µM | – | 82.5 µM | – | > 100 µM | – | 39.2 µM | – | – | – | > 100 µM | – | 37.1 µM | – | – | > 100 µM | –
15 | CC(=O)OC1(Sc2ccccc2)CC2[C@H]3COC(C)(C)O[C@H]3CC[C@@]2(C)CC1=O (some centres undefined) | – | > 100 µM | – | – | – | – | – | > 100 µM | – | > 100 µM | – | > 100 µM | – | > 100 µM | – | > 100 µM | – | > 100 µM | > 100 µM | –
16 | CCOC(=O)c1ccc(N=Cc2ccc(N(CCC#N)S(=O)(=O)c3ccccc3)cc2C)cc1 | – | > 100 µM | – | > 100 µM | – | > 100 µM | – | – | – | – | – | – | – | > 100 µM | – | > 100 µM | – | > 100 µM | > 100 µM | –
17 | COc1ccc2c(c1OC)C(=O)C2 | – | > 100 µM | – | > 100 µM | – | > 100 µM | – | > 100 µM | – | > 100 µM | – | > 100 µM | – | > 100 µM | – | > 100 µM | – | > 100 µM | – | –
18 | C=C1C(=O)OC2CC1C(OC(=O)/C=C/c1ccccc1)C/C(C)=C/CC/C(C)=C/CCC2(C)O (centres undefined) | – | 3.19 µM | – | – | – | 3.23 µM | – | 3.57 µM | – | 2.74 µM | – | 2.72 µM | – | 15.6 µM | – | – | – | 4.51 µM | 2.78 µM | –
19 | CC(C)(C)c1cc(C2c3cc4c(cc3OC(O)(CO)C2C(=O)O)OCO4)cc(C(C)(C)C)c1O (centres undefined) (tested in a mixture with another compound) | – | 48.1 µM | – | 21.9 µM | – | 53.1 µM | – | – | – | 33.3 µM | – | 29.4 µM | – | 28.7 µM | – | 33.4 µM | – | 18.8 µM | 50.3 µM | –
20 | O=C(O)CCC(O)=C1S(=O)(=O)OCCOS1(=O)=O | – | > 100 µM | – | – | – | > 100 µM | – | > 100 µM | – | > 100 µM | – | > 100 µM | – | > 100 µM | – | > 100 µM | – | > 100 µM | > 100 µM | –
